Reference: ChEMBL document CHEMBL6127120, “Antiplasmodial and Insecticidal Activities of Third-Generation Ivermectin Hybrids” (J Med Chem, 2024)
Activity calls are given as the source filed them. The calls are words filed in the database; no cut-off is given here.

Legend:
Type in all cases: functional, organism-based
Anopheles stephensi = experiment: Anti-insecticidal activity against female Anopheles stephensi mosquitoes assessed as mosquito survival treated after 18 to 22 hrs starvation using 70 ng/ml compound containing human O+ blood meal via artificial membrane measured after 14 days relative to control
Plasmodium berghei [1] = experiment: Anti-plasmodial activity against pre-erythrocytic stage Plasmodium berghei infected in human Huh-7 cells by bioluminescence assay
Plasmodium berghei [2] = experiment: Anti-plasmodial activity against pre-erythrocytic stage Plasmodium berghei infected in human Huh-7 cells at 10 to 500 nM by bioluminescence assay; settings: dose 10-500 nM
Plasmodium falciparum = experiment: Anti-plasmodial activity against erythrocytic stage Plasmodium falciparum NF54 in […] measured after 48 hrs by SYBR green dye based flow cytometry; settings: NF54, 48 h
Plasmodium berghei [3] = experiment: Anti-plasmodial activity against hepatic stage GFP-expressing Plasmodium berghei infected in human Huh-7 cells assessed as parasite invasion of host cells treated at IC90 measured after 48 hrs of post-infection by flow cytometry
Plasmodium berghei [4] = experiment: In vivo antiplasmodial activity against Balb/c mouse infected with luciferase expressing Plasmodium berghei infected in red blood cells assessed as parasitemia in blood by measuring bioluminescence at 2 mg/kg, oral gavage 4 consecutive treatment measured upto day 8; settings: time 8.0 day
Plasmodium berghei [5] = experiment: Anti-plasmodial activity against hepatic stage GFP-expressing Plasmodium berghei infected in human Huh-7 cells assessed as parasite invasion of host cells treated at IC90 measured after 2 hrs of post-infection by flow cytometry
Plasmodium berghei [6] = experiment: In vivo antiplasmodial activity against Balb/c mouse infected with luciferase expressing Plasmodium berghei infected in red blood cells assessed as parasitemia in blood by measuring bioluminescence at 50 mg/kg, oral gavage 4 consecutive treatment measured upto day 8; settings: time 8.0 day

## CCC(C)[C@H]1O[C@]2(CC[C@@H]1C)C[C@@H]1C[C@@H](C/C=C(\C)[C@@H](O[C@H]3C[C@H](OC)[C@@H](OC(=O)CNC4CCNCC4)[C@H](C)O3)[C@@H](C)/C=C/C=C3\CO[C@@H]4[C@H](O)C(C)=C[C@@H](C(=O)O1)[C@]34O)O2 (stereo not given in full)
Anopheles stephensi
  Activity: Active
Plasmodium berghei [1]
  IC50: 5700 nM
Plasmodium berghei [2]
  Activity: inactive

## CCC(C)[C@H]1O[C@]2(CC[C@@H]1C)C[C@@H]1C[C@@H](C/C=C(\C)[C@@H](O[C@H]3C[C@H](OC)[C@@H](O[C@H]4C[C@H](OO)[C@@H](O)[C@H](C)O4)[C@H](C)O3)[C@@H](C)/C=C/C=C3\CO[C@@H]4[C@H](O)C(C)=C[C@@H](C(=O)O1)[C@]34O)O2 (stereo not given in full)
Plasmodium berghei [1]
  IC50: 1500 nM
  IC90: 3100 nM
Plasmodium berghei [2]
  Activity: Dose-Dependent Effect
Plasmodium falciparum
  IC50: 460 nM

## CCC(C)[C@H]1O[C@]2(CC[C@@H]1C)C[C@@H]1C[C@@H](C/C=C(\C)[C@@H](O[C@H]3C[C@H](OC)[C@@H](O)[C@H](C)O3)[C@@H](C)/C=C/C=C3\CO[C@@H]4[C@H](O[Si](C)(C)C(C)(C)C)C(C)=C[C@@H](C(=O)O1)[C@]34O)O2 (stereo not given in full)
Plasmodium berghei [1]
  IC50: 2910 nM
Plasmodium berghei [2]
  Activity: Dose-Dependent Effect
Plasmodium falciparum
  IC50: 720 nM

## CCC(C)[C@H]1O[C@]2(CC[C@@H]1C)C[C@@H]1C[C@@H](C/C=C(\C)[C@@H](O[C@H]3C[C@H](OC)[C@@H](OC(=O)CCl)[C@H](C)O3)[C@@H](C)/C=C/C=C3\CO[C@@H]4[C@H](O[Si](C)(C)C(C)(C)C)C(C)=C[C@@H](C(=O)O1)[C@]34O)O2 (stereo not given in full)
Plasmodium berghei [2]
  Activity: inactive

## CCC(C)[C@H]1O[C@]2(CC[C@@H]1C)C[C@@H]1C[C@@H](C/C=C(\C)[C@@H](O[C@H]3C[C@H](OC)[C@@H](O[C@H]4C[C@H](OO)[C@@H](OC(=O)CCl)[C@H](C)O4)[C@H](C)O3)[C@@H](C)/C=C/C=C3\CO[C@@H]4[C@H](O[Si](C)(C)C(C)(C)C)C(C)=C[C@@H](C(=O)O1)[C@]34O)O2 (stereo not given in full)
Plasmodium berghei [2]
  Activity: inactive

## CCC(C)[C@H]1O[C@]2(CC[C@@H]1C)C[C@@H]1C[C@@H](C/C=C(\C)[C@@H](O[C@H]3C[C@H](OC)[C@@H](O)[C@H](C)O3)[C@@H](C)/C=C/C=C3\CO[C@@H]4[C@H](O)C(C)=C[C@@H](C(=O)O1)[C@]34O)O2 (stereo not given in full)
Anopheles stephensi
  Activity: Active
Plasmodium berghei [1]
  IC50: 5630 nM
Plasmodium berghei [2]
  Activity: inactive

## CCOC(=O)c1c(C)nc(OCc2cn(CC(=O)O[C@H]3[C@H](C)O[C@@H](O[C@H]4[C@H](C)O[C@@H](O[C@@H]5/C(C)=C/C[C@@H]6C[C@@H](C[C@]7(CC[C@H](C)[C@@H](C(C)CC)O7)O6)OC(=O)[C@@H]6C=C(C)[C@@H](O)[C@H]7OC/C(=C\C=C\[C@@H]5C)[C@]76O)C[C@@H]4OC)C[C@@H]3OC)nn2)nc1-c1cc(OC)c(OC)cc1[N+](=O)[O-] (stereo not given in full)
Plasmodium berghei [1]
  IC50: 2330 nM
  IC90: 4280 nM
Plasmodium berghei [2]
  Activity: Dose-Dependent Effect
Plasmodium falciparum
  IC50: 30 nM
Plasmodium berghei [3]
  Activity: Active
Plasmodium berghei [4]
  Activity: inactive
Plasmodium berghei [5]
  Activity: inactive

## CCN(CC)CCCC(C)Nc1ccnc2cc(Cl)ccc12 (stereo not given)
Plasmodium berghei [6]
  Activity: Active

## CCC(C)[C@H]1O[C@]2(CC[C@@H]1C)C[C@@H]1C[C@@H](C/C=C(\C)[C@@H](O[C@H]3C[C@H](OC)[C@@H](OC(=O)CCl)[C@H](C)O3)[C@@H](C)/C=C/C=C3\CO[C@@H]4[C@H](O)C(C)=C[C@@H](C(=O)O1)[C@]34O)O2 (stereo not given in full)
Plasmodium berghei [2]
  Activity: inactive

## CCC(C)[C@H]1O[C@]2(CC[C@@H]1C)C[C@@H]1C[C@@H](C/C=C(\C)[C@@H](O[C@H]3C[C@H](OC)[C@@H](O[C@H]4C[C@H](OO)[C@@H](OC(=O)CNC5CCNCC5)[C@H](C)O4)[C@H](C)O3)[C@@H](C)/C=C/C=C3\CO[C@@H]4[C@H](O)C(C)=C[C@@H](C(=O)O1)[C@]34O)O2 (stereo not given in full)
Anopheles stephensi
  Activity: inactive
Plasmodium berghei [1]
  IC50: 5800 nM
Plasmodium berghei [2]
  Activity: inactive

## CCOC(=O)c1c(C)nc(OCc2cn(CC(=O)O[C@H]3[C@H](C)O[C@@H](O[C@@H]4/C(C)=C/C[C@@H]5C[C@@H](C[C@]6(CC[C@H](C)[C@@H](C(C)CC)O6)O5)OC(=O)[C@@H]5C=C(C)[C@@H](O)[C@H]6OC/C(=C\C=C\[C@@H]4C)[C@]65O)C[C@@H]3OC)nn2)nc1-c1cc(OC)c(OC)cc1[N+](=O)[O-] (stereo not given in full)
Plasmodium berghei [1]
  IC50: 1540 nM
  IC90: 3180 nM
Plasmodium berghei [2]
  Activity: Dose-Dependent Effect
Plasmodium falciparum
  IC50: 110 nM
Plasmodium berghei [3]
  Activity: Active
Plasmodium berghei [4]
  Activity: inactive
Plasmodium berghei [5]
  Activity: inactive

## CCC(C)[C@H]1O[C@]2(CC[C@@H]1C)C[C@@H]1C[C@@H](C/C=C(\C)[C@@H](O)[C@@H](C)/C=C/C=C3\CO[C@@H]4[C@H](O)C(CO)=C[C@@H](C(=O)O1)[C@]34O)O2 (stereo not given in full)
Anopheles stephensi
  Activity: Active
Plasmodium berghei [1]
  IC50: 1640 nM
Plasmodium berghei [2]
  Activity: inactive

## CCC(C)[C@H]1O[C@]2(CC[C@@H]1C)C[C@@H]1C[C@@H](C/C=C(\C)[C@@H](O[C@H]3C[C@H](OC)[C@@H](O)[C@H](C)O3)[C@@H](C)/C=C/C=C3\CO[C@@H]4[C@H](O)C(CO)=C[C@@H](C(=O)O1)[C@]34O)O2 (stereo not given in full)
Anopheles stephensi
  Activity: Active
Plasmodium berghei [1]
  IC50: 2600 nM
Plasmodium berghei [2]
  Activity: inactive

## CCC(C)[C@H]1O[C@]2(CC[C@@H]1C)C[C@@H]1C[C@@H](C/C=C(\C)[C@@H](O[C@H]3C[C@H](OC)[C@@H](O[C@H]4C[C@H](OO)[C@@H](O)[C@H](C)O4)[C@H](C)O3)[C@@H](C)/C=C/C=C3\CO[C@@H]4[C@H](O)C(CO)=C[C@@H](C(=O)O1)[C@]34O)O2 (stereo not given in full)
Anopheles stephensi
  Activity: Active
Plasmodium berghei [1]
  IC50: 2220 nM
Plasmodium berghei [2]
  Activity: inactive

## CCC(C)[C@H]1O[C@]2(CC[C@@H]1C)C[C@@H]1C[C@@H](C/C=C(\C)[C@@H](O[C@H]3C[C@H](OC)[C@@H](O[C@H]4C[C@H](OO)[C@@H](OC(=O)CCl)[C@H](C)O4)[C@H](C)O3)[C@@H](C)/C=C/C=C3\CO[C@@H]4[C@H](O)C(C)=C[C@@H](C(=O)O1)[C@]34O)O2 (stereo not given in full)
Anopheles stephensi
  Activity: Active
Plasmodium berghei [1]
  IC50: 2610 nM
Plasmodium berghei [2]
  Activity: Dose-Dependent Effect
Plasmodium falciparum
  IC50: 300 nM

## CCC(C)[C@H]1O[C@]2(CC[C@@H]1C)C[C@@H]1C[C@@H](C/C=C(\C)[C@@H](O[C@H]3C[C@H](OC)[C@@H](O[C@H]4C[C@H](OO)[C@@H](O)[C@H](C)O4)[C@H](C)O3)[C@@H](C)/C=C/C=C3\CO[C@@H]4[C@H](O[Si](C)(C)C(C)(C)C)C(C)=C[C@@H](C(=O)O1)[C@]34O)O2 (stereo not given in full)
Plasmodium berghei [1]
  IC50: 3690 nM
Plasmodium berghei [2]
  Activity: Dose-Dependent Effect
Plasmodium falciparum
  IC50: 700 nM
